Data taken from patent publication US10343974B1, “Cyclohexanol ethers as mediterranean fruit fly attractants” (The United States of America, as Represented by the …, priority 2018, dated 2019).

System: male medfly
Assay: not given
Details: classification in the literature; cited from earlier work
In the case of “tert-butyl 4- (and 5)-chloro-2-methylcyclohexanecarboxylate [Trimedlure, reference compound]”, the “attractant strength for male medfly” value is given as “weak attractant”.

System: Mediterranean fruit flies
Assay: Field cage bioassay: attraction of male Mediterranean fruit flies to Jackson traps baited with PVC plugs
Assay type: in vivo, Ceratitis capitata
Details: grand mean capture ± 2 pooled standard deviations; ~100 mg PVC plug with ~40% compound in Jackson trap; screened field cage, 24-hour period; 150 male flies released per cage; same letter = not significantly different (P >0.05)
Experimental: Assessment of Biological Properties: Compounds were assessed for the ability to attract Mediterranean fruit flies in an enclosed field cage.
Formulation of compounds on PVC disks: All test compounds were >95% pure by GC-MS, except for (1R*,2R*,5R*)-sec-butyl 5-methoxy-2-methylcyclohexanecarboxylate which was tested as a mixture of diastereomers due to the use of (±)-2-butanol in the formation of the ester, and were formulated as ˜100 mg polymeric plugs containing ˜40% by mass of a compound of Formula (I). A typical protocol dissolved polyvinyl chloride (PVC) (864 mg), dibutyl phthalate (DBP) (432 mg), dioctyl phthalate (DOP) (432 mg), (1R*,2R*,5R*)-ethyl 5-methoxy-2-methylcyclohexanecarboxylate (1) (1.152 g) in THF (8.64 g). The mixture was then pipetted (˜400 mg) into respective porcelain wells. The THF was allowed to evaporate by warming the porcelain plate at 40° C. for 15 minutes, and then standing at room temperature until a constant weigh was achieved, to afford ˜26 PVC-attractant disks with a mass of 104.0±3.4 mg, (x±s).
Bioassays: Compounds were evaluated in screened field cages (3×3×2.5 meters) over a 24-hour period. Each field cage housed a single carousel, centered on the ceiling about 2 meters above the floor of the enclosure, which rotated (˜1 revolution/min) 8 equally-spaced Jackson traps. A polymeric plug containing a test compound was placed in a small basket in each Jackson trap with a sticky insert to record the number of fly catches. Test compounds (6) were screened together with two “standard” attractants, TML (FarmaTech, USA) and (±)-CER-B1 (prepared according to Khrimian, A., et al., Tetrahedron, 59: 5475 (2003)). A typical experiment (1) used 3 cages and began between 9-10 am each day, (2) TML and (±)-CER-B were arranged at two directly opposing poles of the carousel with 6 test compounds (3 on each side of TML and (±)-CER-B1) randomly placed relative to the standards, (3) 6 randomly-selected patterns were tested over a 2-day period, with the same sequence of patterns repeated three times (days 1 & 2, days 3 & 4, and days 5 & 6) for a total of 3 replicates, (4) each 2-day period (days 1 & 2, days 3 & 4, and days 5 & 6) used a different cohort of 7-8 day old laboratory reared male Mediterranean fruit flies (n=3), and (5) 150 male Mediterranean fruit flies were released each morning per 24-h cage bioassay for a total of 900 flies per cohort and 2700 flies during the entire testing period. A fresh lure was used for each cage experiment (n=18). Mean fly catch numbers are depicted in the table below.
For each cohort, a single-factor ANOVAs was applied to test the null hypothesis that the mean capture of a particular lure across both days (six trials total, three each day) could be used to estimate attraction. […] An additional single-factor ANOVAs was applied to test the null hypothesis that the grand mean capture of a particular lure could be used to estimate attraction, independent of the cohort. Again, none of the lure-respective ANOVAs were significant, a result that provided evidence to support congruence in the biological response across all cages, days, and cohorts. Also depicted in the table below, the grand mean capture ±2 pooled standard deviations (2 spooled) (Skoog, D. and Leary, J., Principles of Instrumental Analysis, John Wiley & Sons, Eds: New York, 1992). In general, the most attractive compounds in the above bioassay captured a similar (statistically equivalent) or greater number of flies relative to trimedlure.
For `CCOC(=O)[C@@H]1C[C@H](I)CC[C@H]1C` (relative stereo) [Ceralure-B1, (1R*,2R*,5R*)-ethyl 5-iodo-2-methylcyclohexanecarboxylate, reference compound], the “Mean Catch per replicate” value was 94.0 ± 10.7 days.
In the case of `CCC(C)OC(=O)[C@@H]1C[C@H](OC)CC[C@H]1C` (relative stereo) [(1R*,2R*,5R*)-sec-butyl 5-methoxy-2-methylcyclohexanecarboxylate], the “Mean Catch per replicate” value is reported as 13.7 ± 3.0c.
For `CCCOC(=O)[C@@H]1C[C@H](OC)CC[C@H]1C` (relative stereo) [(1R*,2R*,5R*)-propyl 5-methoxy-2-methylcyclohexanecarboxylate], the “Mean Catch per replicate” value was 38.0 ± 9.7b.
For `CO[C@@H]1CC[C@@H](C)[C@H](C(=O)OC(C)C)C1` (relative stereo) [(1R*,2R*,5R*)-isopropyl 5-methoxy-2-methylcyclohexanecarboxylate], the “Mean Catch per replicate” value was 64.7 ± 10.2a.
For `CO[C@@H]1CC[C@@H](C)[C@H](C(=O)OC(C)(C)C)C1` (relative stereo) [(1R*,2R*,5R*)-tert-butyl 5-methoxy-2-methylcyclohexanecarboxylate], the “Mean Catch per replicate” value was 9.0 ± 2.8c.
For “tert-butyl 4- (and 5)-chloro-2-methylcyclohexanecarboxylate [Trimedlure, reference compound]”, the “Mean Catch per replicate” value was 82.7 ± 11.3 days.
For `CO[C@@H]1CC[C@@H](C)[C@H](C(=O)OCC(F)(F)F)C1` (relative stereo) [(1R*,2R*,5R*)-2,2,2-trifluoroethyl 5-methoxy-2-methylcyclohexanecarboxylate], the “Mean Catch per replicate” value was 94.0 ± 11.5 days.
In the case of `CCOC(=O)[C@@H]1C[C@H](OC)CC[C@H]1C` (relative stereo) [(1R*,2R*,5R*)-ethyl 5-methoxy-2-methylcyclohexanecarboxylate], the “Mean Catch per replicate” value is reported as 91.0 ± 9.8 days.

System: not given
Assay: not given
Details: DeMilo 1992; cited from earlier work
In the case of “ethyl esters of 4 (and 5)-iodo-2-methylcyclohexane-1-carboxylate [CER]”, the “stability in formulations and the environment” value is listed as “unstable”.
